Values after ≈ are worked out from the molar mass of the structure shown. Read-outs that look alike come from different tables or passages of the source.
Legend:
[1] = system: colon 38; assay type: in vivo, mouse; details: once a day for 8 days, BDF1 mice, tumor weight on 21st day
Description: In vivo Antitumor Test Against Colon 38 (Mouse Colon Cancer)
About 75 mg of colon 38 was subcutaneously transplanted to the flank of each BDF1 mouse (aged 7 weeks, female). A test compound according to the present invention was suspended in a physiological saline containing 3.5% of dimethyl sulfoxide and 6.5% of Tween 80 and the obtained suspension was intraperitoneally administered to the mice in a predetermined dose once a day for 8 days from the next day of transplantation. On the other hand, only a physiological saline containing 3.5% of dimethyl sulfoxide and 6.5% of Tween 80 was intraperitoneally administered to the mice of the control group. The control group was composed of ten mice, while each treated group was composed of six mice.
On the 21st day after the transplantation, the tumor was extirpated from each mouse to determine its weight. The tumor growth inhibition ratio was determined by the following formula: [formula] T: average weight of tumor of the treated group C: average weight of tumor of the control group

[2] = system: colon 38 cells; assay: In vitro antitumor test against colon 38 cells (MTT); assay type: cell-based; details: 72 h, concentration at which 50% of mouse colon 38 cells are inhibited, 3 days
Description: In vitro Antitumor Test Against Colon 38 Cells (Mouse Colon Cancer Cells)
2.5×10^3 (0.1 ml) of colon 38 cells suspended in RPMI1640 medium (a product of Sanko Junyaku) containing 10% of fetal bovine serum, penicillin (100 units/ml), streptomycin (100 μg/ml), mercaptoethanol (5×10^-5 M) and sodium pyruvate (1 mM) were inoculated in each well of a 96-well flat-bottomed microplate, and cultured in an incubator containing 5% of carbon dioxide at 37° C. for one day.
A test compound according to the present invention was dissolved in dimethyl sulfoxide in a concentration of 20 mg/ml and the resulting solution was diluted with 10% fetal bovine serum/RPMI1640 medium to a concentration of 200 μg/ml. The resulting solution was diluted with 10% fetal bovine serum/RPMI1640 medium to prepare 3-fold serial dilutions with the maximum concentration being 200 μg/ml. The obtained dilutions were each poured into the well of the above-described culture plate in an amount of 0.1 ml. The resulting plate was cultured at 37° C. in an incubator containing 5% of carbon dioxide for 3 days.
Thereafter, a solution of MTT[3-(4,5-dimethylthiazol-2-yl)-2,5-diphenyltetrazolium bromide] (having a concentration of 3.3 mg/ml) was added to each well in an amount of 0.05 ml. The resulting mixtures were further incubated for 2 hours. The supernatant was removed from each well by suction. Formed formazan was dissolved in 0.1 ml of dimethyl sulfoxide. The absorbance at 540 nm was determined with a microplate reader and the absorbance was taken as an index of the number of viable cells. The inhibitory ratio of the test compound was calculated according to the following formula to determine the IC50 of the test compound, with the IC50 referring to the concentration at which 50% of mouse colon 38 cells are inhibited: [formula] T: absorbance of well containing a test compound C: absorbance of well containing no test compound

[3] = system: HCT116; assay: animal or person; details: Mus musculus, HCT-116, ip, 504 h, once a day for 4 days, nude mice, tumor weight on 21st day, read-out: Growth inhibition ratio; for inhibition in vivo at 100 mg/kg: 100 mg/kg/day i.p.; for inhibition in vivo at 50 mg/kg: 50 mg/kg/day i.p.
From the text: In vivo Antitumor Test Against HCT116 (Human Colon Cancer)
HCT116 (5 to 8×10^6) was subcutaneously transplanted to the flank of each nude mouse (BALB/c·nu/nu, aged 7 to 8 weeks, female). A test compound according to the present invention was suspended in a physiological saline containing 3.5% of dimethyl sulfoxide and 6.5% of Tween 80 and the obtained suspension was intraperitoneally administered to the mice treated above once a day in a predetermined dose for 4 days after the time at which the tumor volume had increased to about 100 mm^3, which was about 7 days after the transplantation. On the other hand, only a physiological saline containing 3.5% of dimethyl sulfoxide and 6.5% of Tween 80 was intraperitoneally administered to the mice of the control group. The control group was composed of ten mice, while each treated group was composed of five mice. On the 21st day after the initiation of administration, the tumor was extirpated from each mouse to determine its weight. The tumor growth inhibition ratio was determined by the following formula: [formula] T: average weight of tumor of the treated group C: average weight of tumor of the control group

SMILES	IC50 [2]	other results
N#Cc1ccc(S(=O)(=O)Nc2cccc3c(Cl)c[nH]c23)cc1 [Example 10]	0.13 µg/mL (≈ 0.392 µM)	Growth inhibition ratio ([1]; 50 mg/kg/day i.p.): 94%
N#Cc1ccc(S(=O)(=O)Nc2cccc3c(C#N)c[nH]c23)cc1 [Example 28]	0.12 µg/mL (≈ 0.372 µM)	inhibition in vivo at 100 mg/kg [3]: 77%
CS(=O)(=O)c1ccc(S(=O)(=O)Nc2cccc3c(Cl)c[nH]c23)cc1 [Example 23]	0.13 µg/mL (≈ 0.338 µM)	inhibition in vivo at 100 mg/kg [3]: 87%
Nc1ccc(S(=O)(=O)Nc2cccc3c(Cl)c[nH]c23)cc1 [Example 3]	0.23 µg/mL (≈ 0.715 µM)	Growth inhibition ratio ([1]; 50 mg/kg/day i.p.): 94%
NS(=O)(=O)c1ccc(S(=O)(=O)Nc2ccc(Cl)c3c(Cl)c[nH]c23)cc1 [Example 21]	0.12 µg/mL (≈ 0.286 µM)	inhibition in vivo at 100 mg/kg [3]: 95%
N#Cc1c[nH]c2c(NS(=O)(=O)c3cccc(Cl)c3)cccc12 [Example 17]	0.13 µg/mL (≈ 0.392 µM)	Growth inhibition ratio ([1]; 50 mg/kg/day i.p.): 94%
CS(=O)(=O)Nc1ccc(S(=O)(=O)Nc2cccc3c(Cl)c[nH]c23)cc1 [Example 4]	0.26 µg/mL (≈ 0.65 µM)	inhibition in vivo at 100 mg/kg [3]: 97%
Nc1ccc(S(=O)(=O)Nc2cnc3c(Cl)cccc3n2)cc1 [CQS, 2-sulfanylamido-5-chloroquinoxaline, reference compound]	2 µg/mL (≈ 5.97 µM)	Growth inhibition ratio ([1]; 200 mg/kg/day i.p.): 53%; inhibition in vivo at 200 mg/kg ([3]; 200 mg/kg/day i.p.): 33%
Nc1ccc(S(=O)(=O)Nc2cccc3c(Cl)c[nH]c23)cn1 [Example 33]	0.1 µg/mL (≈ 0.31 µM)	inhibition in vivo at 50 mg/kg [3]: 74%
COc1ccc(S(=O)(=O)Nc2cccc3cn[nH]c23)cc1 [Example 13]	0.63 µg/mL (≈ 2.08 µM)	
CSc1ccc(S(=O)(=O)Nc2cccc3c(Cl)c[nH]c23)cc1 [Example 22]	0.69 µg/mL (≈ 1.96 µM)	
NC(=O)c1ccc(S(=O)(=O)Nc2cccc3c(Cl)c[nH]c23)cc1 [Example 29]	0.19 µg/mL (≈ 0.543 µM)	Growth inhibition ratio ([1]; 50 mg/kg/day i.p.): 97%; inhibition in vivo at 100 mg/kg [3]: 80%
NS(=O)(=O)c1ccc(S(=O)(=O)Nc2cccc3c(Cl)c[nH]c23)cc1 [Example 19]	0.1 µg/mL (≈ 0.259 µM)	inhibition in vivo at 50 mg/kg [3]: 88%
N#Cc1c[nH]c2c(NS(=O)(=O)c3ccc(Cl)nc3)cccc12 [Example 18]	0.11 µg/mL (≈ 0.331 µM)	
O=S(=O)(Nc1cccc2c(Cl)c[nH]c12)c1cccc(Cl)c1 [Example 7]	0.22 µg/mL (≈ 0.645 µM)	

Now from value to compound, other results behind:

IC50 [2]	SMILES	other results
0.25 µg/mL (≈ 0.737 µM)	CC(=O)c1ccc(S(=O)(=O)Nc2cccc3c(C#N)c[nH]c23)cc1 [Example 42]	Growth inhibition ratio ([1]; 50 mg/kg/day i.p.): 98%
0.19 µg/mL (≈ 0.606 µM)	N#Cc1c[nH]c2c(NS(=O)(=O)c3ccc(N)nc3)cccc12 [Example 37]	inhibition in vivo at 100 mg/kg [3]: 93%
0.47 µg/mL (≈ 1.29 µM)	CC(C)Nc1ccc(S(=O)(=O)Nc2cccc3c(Cl)c[nH]c23)cn1 [Example 46]	inhibition in vivo at 50 mg/kg [3]: 84%
0.09 µg/mL (≈ 0.279 µM)	N#Cc1cccc(S(=O)(=O)Nc2cccc3c(C#N)c[nH]c23)c1 [Example 51]	
0.51 µg/mL (≈ 1.16 µM)	O=S(=O)(Nc1cccc2c(Cl)c[nH]c12)c1ccc(S(=O)(=O)N2CCCC2)cc1 [Example 54]	
0.2 µg/mL (≈ 0.545 µM)	O=S(=O)(Nc1cccc2c(Cl)c[nH]c12)c1ccc(NCCO)nc1 [Example 56]	
0.22 µg/mL (≈ 0.559 µM)	CN(C)CCNc1ccc(S(=O)(=O)Nc2cccc3c(Cl)c[nH]c23)cn1 [Example 47]	
0.15 µg/mL (≈ 0.412 µM)	CNC(=O)c1ccc(S(=O)(=O)Nc2cccc3c(Cl)c[nH]c23)cc1 [Example 72]	inhibition in vivo at 100 mg/kg [3]: 87%
0.12 µg/mL (≈ 0.29 µM)	CS(=O)(=O)NCc1ccc(S(=O)(=O)Nc2cccc3c(Cl)c[nH]c23)cc1 [Example 53]	inhibition in vivo at 50 mg/kg [3]: 86%
0.87 µg/mL (≈ 2.49 µM)	CC(=O)c1c[nH]c2c(NS(=O)(=O)c3cccc(Cl)c3)cccc12 [Example 67]	
0.28 µg/mL (≈ 0.693 µM)	O=C(c1ccc(S(=O)(=O)Nc2cccc3c(Cl)c[nH]c23)cc1)N1CCCC1 [Example 75]	
0.2 µg/mL (≈ 0.53 µM)	N#Cc1c[nH]c2c(NS(=O)(=O)c3ccc(Br)cn3)cccc12 [Example 65]	
0.08 µg/mL (≈ 0.256 µM)	Cc1cncc(S(=O)(=O)Nc2cccc3c(C#N)c[nH]c23)c1 [Example 60]	
0.11 µg/mL (≈ 0.276 µM)	CS(=O)(=O)Cc1ccc(S(=O)(=O)Nc2cccc3c(Cl)c[nH]c23)cc1 [Example 73]	inhibition in vivo at 50 mg/kg [3]: 78%
0.57 µg/mL (≈ 1.46 µM)	N#Cc1c[nH]c2c(NS(=O)(=O)c3ccc(N)cc3)cc(Br)cc12 [Example 68]	
0.22 µg/mL (≈ 0.604 µM)	Cc1c[nH]c2c(NS(=O)(=O)c3ccc(S(C)(=O)=O)cc3)cccc12 [Example 50]	
0.57 µg/mL (≈ 1.43 µM)	CC(=O)Nc1ccc(S(=O)(=O)Nc2cccc3c(Cl)c[nH]c23)cc1Cl [Example 38]	
